Measured values from ChEMBL document CHEMBL3120092, “Discovery of GS-9669, a thumb site II non-nucleoside inhibitor of NS5B for the treatment of genotype 1 chronic hepatitis C infection” (J Med Chem, 2014).

Assays:
Hepatitis C virus [1] = test: Antiviral activity against Hepatitis C virus H77 genotype 1a infected in human HuH7 cells assessed as intrinsic antiviral potency after 72 hrs by luciferase reporter gene assay; assay type: functional, organism-based, Hepacivirus hominis; settings: genotype 1a H77, Huh-7, 72 h
Hepatitis C virus [2] = test: Antiviral activity against Hepatitis C virus H77 genotype 1a infected in human HuH7 cells assessed as observed antiviral potency after 72 hrs by luciferase reporter gene assay; assay type: functional, organism-based, Hepacivirus hominis; settings: genotype 1a H77, Huh-7, 72 h
[3] = Fraction unbound in cell culture medium at 2 uM at pH 7.4 by equilibrium dialysis method; assay type: ADME
[4] = Cytotoxicity against human MT4 cells after 5 days by Cell Titre Glo assay; assay type: cell-based
[5] = Intrinsic cytotoxicity against human MT4 cells after 5 days by Cell Titre Glo assay; assay type: cell-based
Hepatitis C virus [6] = test: Antiviral activity against Hepatitis C virus H77 genotype 1a infected in human HuH7 cells assessed as plasma adjusted antiviral potency after 72 hrs by luciferase reporter gene assay; assay type: functional, organism-based, Hepacivirus hominis; settings: genotype 1a H77, Huh-7, Plasma
[7] = Mean residence time in Sprague-Dawley rat at 0.5 mg/kg, iv; assay type: ADME, organism-based; set-up: dose 0.5 mg/kg, route intravenous; settings: in vivo
[8] = Lipophilicity, log D of the compound by chromatography; assay type: physicochemical
[9] = Cytotoxicity against human HuH7 cells after 3 days by Cell Titre Glo assay; assay type: cell-based, Huh-7
Hepatitis C virus [10] = test: Antiviral activity against Hepatitis C virus Con1 genotype 1b infected in human HuH7 cells after 72 hrs by luciferase reporter gene assay; assay type: functional, organism-based, Hepacivirus hominis; settings: isolate Con1, Huh-7, 72 h

SMILES | EC50 (Hepatitis C virus [1]) [nM] | EC50 (Hepatitis C virus [2]) [nM] | fraction unbound at 2 µM [3] | CC50 at 120 h [4] [µM] | CC50 at 120 h [5] [µM] | EC50 (Hepatitis C virus [6]) [nM] | MRT [7] [h] | chromatographic logD [8] | CC50 at 72 h [9] [µM] | EC50 (Hepatitis C virus [10]) [nM]
CC(C)N(c1cc(C#CC(C)(C)C)sc1C(=O)O)C(=O)[C@H]1CC[C@H](Cl)CC1 | 44 | 315 | 0.14 | > 20 | – | – | – | – | – | –
CC(C)(C)C#Cc1cc(N(C(=O)[C@H]2CC[C@H](C)CC2)C2CCN(S(C)(=O)=O)CC2)c(C(=O)O)s1 | 8.7 | 51 | 0.17 | > 20 | – | – | – | – | – | –
CC(C)(C)C#Cc1cc(N(C(=O)[C@H]2CC[C@H](C)CC2)C2CCN(C(=O)c3cccnc3)CC2)c(C(=O)O)s1 | 43 | 183 | 0.23 | > 20 | – | – | – | – | – | –
CC1=CC[C@@H](C(=O)N(c2cc(C#CC(C)(C)C)sc2C(=O)O)C(C)C)CC1 | 3.7 | 45 | 0.08 | > 20 | – | – | – | – | – | –
CCC[C@]1(CC(=O)O)OCCc2c1[nH]c1c(C)ccc(C#N)c21 | – | – | – | > 20 | – | – | – | – | – | –
C[C@@H](CCOc1cccnc1)N(c1cc(C#CC(C)(C)C)sc1C(=O)O)C(=O)[C@H]1CC[C@H](C)CC1 | 2.4 | 102 | 0.02 | > 20 | – | – | – | – | – | –
CC1CC=C(C(=O)N(c2cc(C#CC(C)(C)C)sc2C(=O)O)C(C)C)CC1 (configuration not stated) | 65 | 773 | 0.08 | > 20 | – | – | – | – | – | –
CC(C)(C)C#Cc1cc(N(C(=O)[C@H]2CC[C@H](C)CC2)[C@H]2CC[C@@](O)(CO[C@H]3CCOC3)CC2)c(C(=O)O)s1 | 4.3 | – | – | > 20 | 18.1 | 191 | 0.2 | – | – | –
CC(C)(C)C#Cc1cc(N(C(=O)[C@H]2CC[C@H](C)CC2)[C@H]2CC[C@H](OC3CCOC3)CC2)c(C(=O)O)s1 (some centres not stated) | 4.3 | 55 | – | > 20 | 3.07 | 749 | 3.5 | 2.3 | – | –
CC(C)(C)C#Cc1cc(N(C(=O)[C@H]2CC[C@H](C)CC2)[C@H]2CC[C@H](OC3CCOCC3)CC2)c(C(=O)O)s1 | 2.4 | – | – | > 20 | 1.99 | 1830 | – | 2.4 | – | –
CC(C)(C#Cc1cc(N(C(=O)[C@H]2CC[C@H](C)CC2)[C@H]2CC[C@H](OC3CCOC3)CC2)c(C(=O)O)s1)CCO (some centres not stated) | 6.1 | – | – | > 20 | 31.3 | 167 | 0.4 | 1.6 | – | –
C[C@@H]1CC[C@@H](C(=O)N(c2cc(C#CC(C)(C)C)sc2C(=O)O)[C@H]2CC[C@H](OC3CCOC3)CC2)[C@@H](O)C1 (some centres not stated) | 2 | – | – | > 20 | 11.6 | 138 | 1.9 | 2.2 | – | –
CC(C)(C)C#Cc1cc(N(CCO)C(=O)[C@H]2CC[C@H](C)CC2)c(C(=O)O)s1 | – | 304 | – | > 20 | – | – | – | – | ≥ 20 | 78
CC(C)N(C(=O)C1CCC(F)(F)CC1)c1cc(C#CC(C)(C)C)sc1C(=O)O | 12800 | 32100 | 0.4 | > 20 | – | – | – | – | – | –
CC(C)N(C(=O)[C@H]1CC[C@@H]2C[C@@H]2CC1)c1cc(C#CC(C)(C)C)sc1C(=O)O | 483 | 6190 | 0.08 | > 20 | – | – | – | – | – | –
CC(C)(C)C#Cc1cc(N(C(=O)[C@H]2CC[C@H](C)CC2)[C@H]2CC[C@H](Oc3ccc(=O)[nH]n3)CC2)c(C(=O)O)s1 | 3.5 | 39 | – | > 20 | 1.48 | 285 | 1.6 | 2 | – | –

SMILES | EC50 (Hepatitis C virus [1]) [nM] | EC50 (Hepatitis C virus [2]) [nM] | fraction unbound at 2 µM [3] | CC50 at 120 h [4] [µM] | CC50 at 120 h [5] [µM] | EC50 (Hepatitis C virus [6]) [nM] | MRT [7] [h] | chromatographic logD [8] | CC50 at 72 h [9] [µM] | EC50 (Hepatitis C virus [10]) [nM]
C[C@H]1CC[C@H](C(=O)N(c2cc(C#CC3(C(F)(F)F)CCC3)sc2C(=O)O)[C@H]2CC[C@H](Oc3ccc(O)nn3)CC2)CC1 | 2.7 | 120 | – | > 20 | – | 607 | – | – | – | –
C[C@@H](CCO)N(c1cc(C#CC(C)(C)C)sc1C(=O)O)C(=O)[C@H]1CC[C@H](C)CC1 | 3.3 | 15 | 0.22 | > 20 | – | – | – | – | ≥ 20 | 7
CC(C)N(C(=O)C1CCCCC1)c1cc(C#CC(C)(C)C)sc1C(=O)O | 500 | 2800 | 0.18 | > 20 | – | – | – | – | – | –
CC(C)(C)C#Cc1cc(N(C(=O)[C@H]2CC[C@H](C)CC2)[C@H]2CC[C@H](Oc3ccncn3)CC2)c(C(=O)O)s1 | 2.8 | 75 | – | > 20 | 0.599 | 1390 | 7.1 | 2.3 | – | –
CC(C)N(C(=O)[C@@H]1CC[C@@H]2C[C@@H]2CC1)c1cc(C#CC(C)(C)C)sc1C(=O)O | 88 | 1620 | 0.05 | > 20 | – | – | – | – | – | –
CC(C)(C)C#Cc1cc(N(C(=O)[C@H]2CC[C@H](C)CC2)[C@H]2CC[C@@H](Oc3ccc(O)nn3)CC2)c(C(=O)O)s1 | 2.6 | 24 | – | > 20 | 2.17 | 277 | 0.5 | 1.8 | – | –
CC(C)N(C(=O)C1CCCCCC1)c1cc(C#CC(C)(C)C)sc1C(=O)O | 225 | 2020 | 0.11 | > 20 | – | – | – | – | – | –
CON=C1CCC(N(c2cc(C#CC(C)(C)C)sc2C(=O)O)C(=O)[C@H]2CC[C@H](C)CC2)CC1 (some centres not stated) | 6.1 | 88 | 0.07 | > 20 | – | – | – | – | – | –
CC(C)(C#Cc1cc(N(C(=O)[C@H]2CC[C@H](C)CC2)[C@H]2CC[C@H](Oc3ccc(O)nn3)CC2)c(C(=O)O)s1)C(F)(F)F | 4.9 | 51 | – | > 20 | – | 516 | – | – | – | –
CC(C)(C)C#Cc1cc(N(C(=O)[C@H]2CC[C@H](C)CC2)[C@H]2CC[C@H](OC3COC3)CC2)c(C(=O)O)s1 | 4.3 | – | – | > 20 | 8.35 | 102 | – | 2.6 | – | –
C[C@H]1CC[C@H](C(=O)N(c2cc(C#CC3(C(F)(F)F)CC3)sc2C(=O)O)[C@H]2CC[C@H](Oc3ccc(O)nn3)CC2)CC1 | 6.9 | 61 | – | > 20 | – | 751 | – | – | – | –
CC(C)N(c1cc(C#CC(C)(C)C)sc1C(=O)O)C(=O)[C@H]1CC[C@H](CF)CC1 | 31 | 169 | 0.18 | > 20 | – | – | – | – | – | –
CC(C)(C)C#Cc1cc(N(C(=O)[C@H]2CC[C@H](C)CC2)[C@H]2C[C@@H](Oc3cccnc3)C2)c(C(=O)O)s1 | 6.4 | 156 | 0.04 | > 20 | – | – | – | – | – | –
CC(C)(C)C#Cc1cc(N(C(=O)[C@H]2CC[C@H](C)CC2)[C@H]2CC[C@@H](Oc3cccnc3)CC2)c(C(=O)O)s1 | 1.2 | 45 | – | > 20 | – | – | 0.2 | – | – | –
CC(C)N(C(=O)[C@H]1[C@@H]2CCCC[C@@H]21)c1cc(C#CC(C)(C)C)sc1C(=O)O | 206 | 4680 | 0.04 | > 20 | – | – | – | – | – | –
